Measured values: ChEMBL document CHEMBL1201862, “PubChem BioAssay data set” (2004)
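Cultured in 96-well plates, cells were exposed to test compound for 48 hours across five concentrations. GI50 is the concentration that inhibits growth by half.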 Calls of active or inactive are those of the source. Cut-off read from the data, not from the text of the source: active = GI50 up to about 1.1 µM and inactive = higher.

Key:
Assay in all cases: inhibition of tumour cell growth, NCI panel, 48 h
786-0 = system: 786-0
A549 = system: A549
CAKI-1 = system: CAKI-1
COLO 205 = system: COLO 205
DLD-1 = system: DLD-1
EKVX = system: EKVX
HCT-116 = system: HCT-116
IGROV-1 = system: IGROV-1
K562 = system: K562
KM-20L2 = system: KM-20L2
NCI-H460 = system: NCI-H460
OVCAR-4 = system: OVCAR-4
SN12C = system: SN12C
SR = system: SR
SW-620 = system: SW-620
U-251 = system: U-251
UACC-62 = system: UACC-62
A498 = system: A498

Measured: GI50

COc1ccc2c(c1)CCc1c-2nc2cc3c(cc2c1O)OCO3
inactive: 786-0 > 100 µM | A549 > 100 µM | CAKI-1 > 100 µM | COLO 205 > 100 µM | DLD-1 > 100 µM | EKVX > 100 µM | HCT-116 > 100 µM | IGROV-1 > 100 µM | K562 > 100 µM | KM-20L2 > 100 µM | NCI-H460 > 100 µM | OVCAR-4 > 100 µM | SN12C > 100 µM | SR > 100 µM | SW-620 > 100 µM | U-251 > 100 µM | UACC-62 > 100 µM

CSc1nc(O)c2cn(Cc3ccccc3)nc2n1
inactive: 786-0 > 100 µM | A498 > 100 µM | A549 > 100 µM | CAKI-1 41 µM | COLO 205 > 100 µM | DLD-1 > 70.5 µM | EKVX > 100 µM | HCT-116 > 100 µM | IGROV-1 > 100 µM | K562 77.8 µM | KM-20L2 > 67.5 µM | NCI-H460 > 100 µM | OVCAR-4 > 100 µM | SN12C > 100 µM | SR > 100 µM | SW-620 > 100 µM | U-251 > 100 µM | UACC-62 > 100 µM

CCOC(=O)C=C1CCN(C(=O)c2ccccc2)CC1
inactive: 786-0 > 100 µM | A498 > 100 µM | A549 > 100 µM | COLO 205 > 100 µM | DLD-1 > 100 µM | EKVX > 100 µM | HCT-116 > 100 µM | IGROV-1 > 100 µM | K562 > 100 µM | KM-20L2 > 100 µM | NCI-H460 > 100 µM | OVCAR-4 > 100 µM | SN12C > 100 µM | SR 15.4 µM | SW-620 > 100 µM | U-251 > 100 µM | UACC-62 > 100 µM

CN(O)C(=O)Cc1ccccc1
inactive: 786-0 > 100 µM | A549 > 100 µM | CAKI-1 > 100 µM | COLO 205 > 100 µM | DLD-1 > 100 µM | HCT-116 > 100 µM | IGROV-1 > 100 µM | K562 > 100 µM | KM-20L2 > 100 µM | NCI-H460 > 100 µM | OVCAR-4 > 100 µM | SN12C > 100 µM | SR > 100 µM | SW-620 > 100 µM | U-251 > 100 µM | UACC-62 > 100 µM

C/C(=C\CNc1ncnc2c1ncn2C1CCCCO1)COP(=O)(O)O (stereo unspecified)
inactive: 786-0 > 100 µM | A549 > 100 µM | CAKI-1 > 100 µM | COLO 205 > 100 µM | DLD-1 > 100 µM | EKVX > 100 µM | HCT-116 > 100 µM | IGROV-1 > 100 µM | K562 > 100 µM | KM-20L2 > 100 µM | NCI-H460 > 100 µM | OVCAR-4 > 100 µM | SN12C > 100 µM | SR > 100 µM | SW-620 > 100 µM | U-251 > 100 µM | UACC-62 > 100 µM

COC(=O)C(C(=O)C(=O)Nc1ccccc1OC)c1csc(-n2nc(-c3ccccc3)cc2-c2ccccc2)n1 (stereo unspecified)
inactive: 786-0 > 100 µM | A498 > 100 µM | A549 > 100 µM | CAKI-1 > 100 µM | COLO 205 > 100 µM | DLD-1 > 100 µM | EKVX 43.1 µM | HCT-116 > 100 µM | IGROV-1 > 100 µM | K562 > 100 µM | KM-20L2 > 100 µM | NCI-H460 > 100 µM | OVCAR-4 > 100 µM | SN12C > 100 µM | SR 90.8 µM | SW-620 > 100 µM | U-251 > 100 µM | UACC-62 > 100 µM

COC(=O)C(=O)C(C#N)c1cccc2ccccc12 (stereo unspecified)
inactive: 786-0 > 100 µM | A498 > 100 µM | A549 > 100 µM | CAKI-1 > 100 µM | COLO 205 > 100 µM | DLD-1 > 100 µM | EKVX > 100 µM | HCT-116 > 100 µM | IGROV-1 > 100 µM | K562 > 100 µM | KM-20L2 > 100 µM | OVCAR-4 > 100 µM | SN12C > 100 µM | SR > 100 µM | SW-620 > 100 µM | U-251 > 100 µM | UACC-62 > 100 µM

COc1ccc2c(c1)N1CCc3cc(OC)c(OC)cc3C1C2 (stereo unspecified)
inactive: 786-0 54.6 µM | A498 41.4 µM | A549 47.8 µM | CAKI-1 53.2 µM | COLO 205 > 100 µM | DLD-1 39.7 µM | EKVX > 100 µM | IGROV-1 28.4 µM | K562 32.3 µM | KM-20L2 73.3 µM | NCI-H460 52.4 µM | OVCAR-4 33.8 µM | SN12C 51.9 µM | SR 34.2 µM | SW-620 > 100 µM | U-251 > 100 µM | UACC-62 23.6 µM

COC(=O)N/N=C(\C)C(CN1CCCCC1)C(C1=C(O)c2ccccc2OC1)c1ccccc1 (stereo unspecified)
inactive: 786-0 > 100 µM | A498 > 100 µM | A549 > 100 µM | CAKI-1 > 100 µM | COLO 205 > 100 µM | DLD-1 > 100 µM | EKVX > 100 µM | HCT-116 > 100 µM | IGROV-1 > 100 µM | K562 > 100 µM | KM-20L2 > 100 µM | NCI-H460 > 100 µM | OVCAR-4 > 100 µM | SN12C > 100 µM | SR > 100 µM | SW-620 > 100 µM | U-251 43.1 µM | UACC-62 86.3 µM

O=C(O)Cn1c(=O)[nH]c(=O)c2[nH]cnc21
inactive: 786-0 > 100 µM | A498 > 100 µM | A549 > 100 µM | COLO 205 > 100 µM | DLD-1 > 100 µM | EKVX > 100 µM | HCT-116 > 100 µM | IGROV-1 > 100 µM | K562 > 100 µM | KM-20L2 > 100 µM | NCI-H460 > 100 µM | OVCAR-4 > 100 µM | SN12C > 100 µM | SR > 100 µM | SW-620 > 100 µM | U-251 > 100 µM | UACC-62 > 100 µM

O=C1CC2CCN(C(=O)c3ccccc3)CC2CCN1 (stereo unspecified)
inactive: 786-0 > 100 µM | A498 > 100 µM | A549 > 100 µM | COLO 205 > 100 µM | DLD-1 > 100 µM | EKVX > 100 µM | HCT-116 > 100 µM | IGROV-1 > 100 µM | K562 > 100 µM | KM-20L2 > 100 µM | NCI-H460 > 100 µM | OVCAR-4 > 100 µM | SN12C > 100 µM | SR > 100 µM | SW-620 > 100 µM | U-251 > 100 µM | UACC-62 > 100 µM

O=C(NC12CC3CC(CC(C3)C1)C2)C(=O)c1c[nH]c2ccc(Br)cc12
inactive: 786-0 7.13 µM | A549 14.4 µM | CAKI-1 39.3 µM | COLO 205 18.6 µM | DLD-1 13.4 µM | EKVX 73.1 µM | HCT-116 14.6 µM | IGROV-1 45.5 µM | K562 8.39 µM | KM-20L2 4.54 µM | NCI-H460 10.2 µM | OVCAR-4 14 µM | SN12C 18.5 µM | SR 10 µM | SW-620 25 µM | U-251 12.1 µM | UACC-62 23.5 µM
